US8501214B2, “Hydrophilic foam and pharmaceutical dosage form employing the same” (priority 2007, dated 2013)
Where two headings read alike, the source gives them in different places. Blank lines part the entries; values can stand above or below the compound they belong to.

What was measured:
[1] = Solvent/water partition coefficient analysis (1-Octanol/water); type: physicochemical; conditions: for logP: logarithm of the ratio of 1-Octanol to water, read-out: Partition coefficient [log Poct/wat]
Experimental: Solvent/water partition coefficient analysis was conducted to determine the solvent/water partition coefficient. Various solvent were used in the experiments; yet, only the 1-Octanol/water partition coefficients of the active agents described herein above are summarized in Table 4. The 1-Octanol/water partition coefficient is the logarithm of the ratio of 1-Octanol to water and can be expressed as [log Poct/wat].

[2] = Transmembrane penetration analysis; type: in vitro ADME, swine; conditions: for True Value Concentration (completely penetrated active agent): 0.25 mL gel admixed with 5.5 mL saline; for Penetration Ratio: relative to true value
From the text: The solution was admixed with the aquagel or O/W gel described hereinabove to afford an active agent-containing gel. In the comparative example, commercially available vaseline ointment was admixed with heptane to form vaseline gel, and the solution was also admixed with the vaseline gel.
In the transmembrane penetration analysis, swine endometrium was used as the membrane. The swine endometrium of suitable size was disposed between an upper container and a lower container. The lower container was filled with physiologic saline and debubbled. […] The pipetted sample was analyzed with HPLC-PDA system.
In addition, about 0.25 mL of each gel was admixed with about 5.5 mL of saline. The admixture was extracted, filtered through a filter film (0.45 μm) and then analyzes by HPLE-PDA. The results (referred to as the “true value” hereinafter) thus obtained were regarded as the amount of a completely penetrated active agent present in the lower container.

[3] = Comparative Example D (vaseline gel)
[4] = Working Example 3 (aqua gel), 1 hr
[5] = Working Example 3 (aqua gel), 3 hr
[6] = Working Example 3 (aqua gel), 5 hr
[7] = Working Example 3 (aqua gel), 21 hr
[8] = Working Example 3 (aqua gel), 24 hr
[9] = Working Example 4 (O/W gel), 21 hr
[10] = Working Example 4 (O/W gel), 24 hr
[11] = Working Example 4 (O/W gel), 26 hr

Compound: Nc1nc2c(ncn2COCCO)c(=O)[nH]1 [Acyclovir (ACY), Acyclovir]
logP ([1]; 1-octanol/water): -1.58 | True Value Concentration (completely penetrated active agent) [2, 3]: 0.1865 mg/mL | True Value Concentration (completely penetrated active agent) ([2]; Working Example 3 (aqua gel)): 0.09979 mg/mL | Concentration in lower container [2, 4]: 5970 ng/mL | Concentration in lower container [2, 5]: 21420 ng/mL | Concentration in lower container [2, 6]: 29640 ng/mL | Concentration in lower container [2, 7]: 62890 ng/mL | Concentration in lower container [2, 8]: 58630 ng/mL | True Value Concentration (completely penetrated active agent) ([2]; Working Example 4 (O/W gel)): 0.1375 mg/mL | Concentration in lower container [2, 9]: 2510 ng/mL | Concentration in lower container [2, 10]: 60500 ng/mL | Concentration in lower container [2, 11]: 83400 ng/mL

Compound: O=c1ccc2ccc3occc3c2o1 [Isopsoralen]
1-Octanol/H2O ratio [1]: 306.9 | logP [1]: 2.49

Compound: C[C@@H]1[C@H](O)[C@@H](C)/C=C/C=C/CC/C=C/C=C/C=C/C=C/C(O[C@H]2O[C@H](C)[C@@H](O)[C@H](N)[C@@H]2O)CC2O[C@](O)(CC(O)C(O)CCC(O)CC(O)CC(O)CC(=O)O[C@H]1C)CC(O)C2C(=O)O (some centres unmarked) [Nystatin (NYS), Nystatin]
1-Octanol/H2O ratio [1]: 1.98 | Partition coefficient [log Poct/wat] [1]: 0.30 | True Value Concentration (completely penetrated active agent) ([2]; Working Example 4 (O/W gel)): 0.06448 mg/mL | Concentration in lower container [2, 9]: 1930 ng/mL | Penetration Ratio [2, 9]: 2.99% | Concentration in lower container [2, 10]: 20720 ng/mL | Penetration Ratio [2, 10]: 32.14% | Concentration in lower container [2, 11]: 30070 ng/mL | Penetration Ratio [2, 11]: 46.64%

Compound: CC(C)[C@]12O[C@H]1[C@@H]1O[C@]13[C@]1(O[C@H]1C[C@H]1C4=C(CC[C@@]13C)C(=O)OC4)[C@@H]2O [Triptolide]
1-Octanol/H2O ratio [1]: 54.13 | logP [1]: 1.73

Next, values leading:

1-Octanol/H2O ratio [1]: Insoluble in water
Compound: O=c1cc(-c2ccccc2)oc2cc(O)c(O)c(O)c12 [Baicalein]

1-Octanol/H2O ratio [1]: 1.859 | logP [1]: 0.27
Compound: O=C(O)c1cc(O)c(O)c(O)c1 [Gallic acid]

logP ([1]; 1-octanol/water): 0.05 | True Value Concentration (completely penetrated active agent) [2, 3]: 0.1563 mg/mL | Concentration in lower container ([2]; Comparative Example D (vaseline gel), 3 hr): 460 ng/mL | Concentration in lower container ([2]; Comparative Example D (vaseline gel), 5 hr): 590 ng/mL | Concentration in lower container ([2]; Comparative Example D (vaseline gel), 10.5 hr): 960 ng/mL | Concentration in lower container ([2]; Comparative Example D (vaseline gel), 24 hr): 1740 ng/mL | Concentration in lower container ([2]; Comparative Example D (vaseline gel), 26 hr): 1430 ng/mL | True Value Concentration (completely penetrated active agent) ([2]; Working Example 3 (aqua gel)): 0.09568 mg/mL | Concentration in lower container [2, 4]: 13200 ng/mL | Concentration in lower container [2, 5]: 31080 ng/mL | Concentration in lower container [2, 6]: 395900 ng/mL | Concentration in lower container [2, 7]: 635800 ng/mL | Concentration in lower container [2, 8]: 587100 ng/mL | Concentration in lower container ([2]; Working Example 3 (aqua gel), 26 hr): 595100 ng/mL | True Value Concentration (completely penetrated active agent) ([2]; Working Example 4 (O/W gel)): 0.1433 mg/mL | Concentration in lower container [2, 9]: 6510 ng/mL | Concentration in lower container [2, 10]: 61670 ng/mL | Concentration in lower container [2, 11]: 81070 ng/mL
Compound: Cc1ncc([N+](=O)[O-])n1CCO [Metronidazole (MTZ), Metronidazole]

True Value Concentration (completely penetrated active agent) ([2]; Working Example 4 (O/W gel)): 0.1401 mg/mL | Concentration in lower container [2, 9]: 7060 ng/mL | Concentration in lower container [2, 10]: 60660 ng/mL | Concentration in lower container [2, 11]: 82720 ng/mL
Compound: Clc1ccc(COC(Cn2ccnc2)c2ccc(Cl)cc2Cl)c(Cl)c1 (centres unmarked) [Miconazole nitrate(MIC), Miconazole nitrate]
